Values of other authors in patent US10507204B2, “Pharmaceutical composition comprising amorphous lenalidomide” (SYNTHON B.V., priority 2014, dated 2019).

solubility in water: slightly soluble
Structure (SMILES): Nc1cccc2c1CN(C1CCC(=O)NC1=O)C2=O (racemic) [Lenalidomide, (RS)-3-(4-Amino-1-oxo 1,3-dihydro-2H-isoindol-2-yl)piperidine-2,6-dione]
